Results reported in article PMC10954734, “Structure of antiviral drug bulevirtide bound to hepatitis B and D virus receptor protein NTCP” (Nature Communications, 2024).

Key:
[1] = test system: SVPs from patient K826 (HBV GtA); assay: Binding of nanodisc-reconstituted NTCP-eYFP to SVPs of patient K826 (GtA); settings: 25–100 nM
Protocol: (§1) The lipids were then mixed with detergent-purified NTCP and incubated at room temperature for 5 min with gentle agitation. Next, membrane scaffold protein (MSP1D1) was added to the mixture and incubated for 20 min at room temperature. […] Bio-Beads were removed by passing through a gravity column (Bio-Rad), and the mixture was briefly spun at 4000 × g at 4 °C to remove excess lipids. […] Peak fractions containing nanodisc-reconstituted NTCP were collected and concentrated.
(§2) Subviral particles (SVPs) were isolated from plasma of two chronic HBV-infected patients by three consecutive ultracentrifugation steps according to published protocols[13]. Briefly, SVP were separated from virions using rate zonal ultracentrifugation through a sucrose density gradient. SVP-containing fractions were pooled and further purified using caesium chloride (CsCl) flotation ultracentrifugation. Pooled SVP-fractions were further purified using a second sucrose density gradient and concentrated by ultrafiltration. […] For fluorescence measurement, 100 μL HBS buffer was added to each well and the fluorescence intensity of eYFP was detected at 485 nm excitation and 535 nm emission on a fluorescence microplate reader (TECAN Life Sciences).

[2] = test system: SVPs from patient ID1 (HBV GtD); assay: Binding of nanodisc-reconstituted NTCP-eYFP to SVPs of patient ID1 (GtD); settings: 25–100 nM
Protocol: as §1, §2

Gly158Arg human NTCP = settings: ref [54]; cited from earlier work
Description: (§3) We aligned the sequence of human NTCP to that of Cynomolgus monkey and Common squirrel monkey, which are representatives of the Old and New World monkeys, respectively (Fig. 6a and Supplementary Fig. 6).

human NTCP = target: T1, human NTCP (Homo sapiens, UniProt Q14973); assay: preS1-AX568 binding to HEK-NTCP cells (and its inhibition by TC); assay type: cell-based; settings: preincubation with 250 µM TC
T1 construct: The full-length wild-type human NTCP gene (UniProt ID: Q14973); expressed in transfected cells
T1 sequence (Q14973 1-349): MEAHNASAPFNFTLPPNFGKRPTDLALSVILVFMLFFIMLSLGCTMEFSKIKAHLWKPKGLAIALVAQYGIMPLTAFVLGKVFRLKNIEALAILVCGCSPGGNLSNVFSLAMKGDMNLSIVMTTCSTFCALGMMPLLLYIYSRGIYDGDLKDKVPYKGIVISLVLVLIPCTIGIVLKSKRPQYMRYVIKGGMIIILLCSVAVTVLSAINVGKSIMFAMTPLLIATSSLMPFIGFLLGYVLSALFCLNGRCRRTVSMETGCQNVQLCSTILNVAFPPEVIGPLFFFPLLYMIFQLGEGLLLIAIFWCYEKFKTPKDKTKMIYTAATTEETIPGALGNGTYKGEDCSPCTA
Protocol: Human embryonic kidney Flp-In T-Rex 293 cells (Thermo Fisher Scientific, R78007, hereafter referred to as non-NTCP expressing HEK293 cells) stably expressing the human NTCP protein were generated according to the manufacturer’s guidelines as reported before[62] and are hereafter referred to as HEK-NTCP cells. […] For induction of NTCP expression, HEK-NTCP cells were incubated with 1 μg/mL tetracycline (Carl Roth, HP63.1)[62]. […] Inhibitor preincubation was performed over 5 min at 37 °C, consistent with previously published data[64]. Quantification of relative fluorescence was assessed at 570 nm excitation and 615 nm emission on a fluorescence microplate reader (TECAN Life Sciences).

[3] = test system: Gly158Arg Common squirrel monkey NTCP; settings: ref [54]; cited from earlier work
Description: as §3

## NTCP: nanodisc-reconstituted, eYFP-labeled wild-type human NTCP
[1]
  binding to GtA SVPs (in words): concentration-dependent binding
[2]
  binding to GtD SVPs (in words): concentration-dependent binding

## C[C@H](CCC(=O)NCCS(=O)(=O)O)[C@H]1CC[C@H]2[C@@H]3[C@H](O)C[C@@H]4C[C@H](O)CC[C@]4(C)[C@H]3C[C@H](O)[C@]12C [TC, taurocholic acid]
Gly158Arg human NTCP
  TC transport, effect of Gly158Arg mutation: maintaining the transport activity of NTCP for TC
Human NTCP
  block of preS1-AX568 binding to NTCP (in words): can be blocked
[3]
  TC transport, effect of Gly158Arg mutation: maintaining the transport activity of NTCP for TC
